The test system of the test is BDF1 mice, B16 melanoma ip, median survival T/C. Kind of test: NCI In Vivo Anticancer Drug Screen. Data for tumor model B16 Melanoma (intraperitoneal) in B6D2F1 (BDF1) mice. The following applies: endpoint: median survival time, higher = longer survival. The procedure:
The antitumor activity of compounds was measured in mice bearing transplantable tumors. Survival or tumor size were measured and the results are expressed as the measurement made in the treated group (T) divided by the measurement made in the vehicle treated control group (C). The tumor model used in this assay is B16 Melanoma (intraperitoneal) in B6D2F1 (BDF1) mice

Where [1] appears, read: dose: 50.0 mg/kg/injection, schedule: Q01DX009 (ip), vehicle: Klucel (hydroxypropylcellulose) (HPC).
The mark [2] stands for this setting: dose: 200.0 mg/kg/injection, schedule: Q01DX009 (ip), vehicle: Klucel (hydroxypropylcellulose) (HPC).
[3] abbreviates: dose: 100.0 mg/kg/injection, schedule: Q01DX009 (ip), vehicle: saline with Tween-80.
[4] abbreviates: dose: 200.0 mg/kg/injection, schedule: Q01DX009 (ip), vehicle: saline with Tween-80.
The mark [5] stands for this setting: dose: 100.0 mg/kg/injection, schedule: Q01DX009 (ip), vehicle: saline.
The mark [6] stands for this setting: dose: 200.0 mg/kg/injection, schedule: Q01DX009 (ip), vehicle: saline.
Setting [7] is: dose: 400.0 mg/kg/injection, schedule: Q01DX009 (ip), vehicle: saline.

Several values for one entry are separate records, joined by “and”; a condition that tells them apart may be missing. Equal values may be shown once. Toxic doses and inconclusive results are not listed.

In the case of `S=P(N1CC1)(N1CC1)N1CC1`, the T/C runs as follows: (dose: 0.5 mg/kg/injection, schedule: Q01DX009 (ip), vehicle: saline) 104 % of control; (dose: 1.0 mg/kg/injection, schedule: Q02DX009 (ip), vehicle: saline) 106 % of control and 120 % of control; (dose: 1.5 mg/kg/injection, schedule: Q01DX009 (ip), vehicle: saline) 110 % of control and 120 % of control; (dose: 1.5 mg/kg/injection, schedule: Q02DX009 (ip), vehicle: saline) 112 % of control; (dose: 2.0 mg/kg/injection, schedule: Q02DX009 (ip), vehicle: saline) 94 % of control and 111 % of control; (dose: 3.0 mg/kg/injection, schedule: Q01DX009 (ip), vehicle: saline) 104 % of control and 111 % of control. The T/C (dose: 3.0 mg/kg/injection, schedule: Q02DX009 (ip), vehicle: saline) was 120 % of control; the T/C (dose: 4.0 mg/kg/injection, schedule: Q02DX009 (ip), vehicle: saline) was 119 % of control and 120 % of control; the T/C (dose: 6.0 mg/kg/injection, schedule: Q01DX009 (ip), vehicle: saline) is 86 % of control; the T/C (dose: 6.0 mg/kg/injection, schedule: Q02DX009 (ip), vehicle: saline) is 116 % of control and 117 % of control; the T/C (dose: 8.0 mg/kg/injection, schedule: Q02DX009 (ip), vehicle: saline) is 88 % of control and 122 % of control; the T/C (dose: 12.0 mg/kg/injection, schedule: Q02DX009 (ip), vehicle: saline) is 86 % of control.
Take `CCCCCCCCCCCCCCCCS(=O)(=O)c1ccc(NN)cc1`: the T/C reads like this: under setting [1], 97 % of control; under setting [2], 86 % of control and 88 % of control.
As to `CC1(C)SC(C(NC(=O)Cc2ccccc2)C(=O)O)NC1C(=O)O` (centres undefined), the T/C is 105 % of control under setting [3] and 102 % of control under setting [4].
In the case of `CC(=O)CC(=O)NCc1cccc(C)n1`, the T/C by setting is: under setting [5], 106 % of control; under setting [6], 111 % of control; under setting [7], 112 % of control.
Regarding `C[C@H]1C(=O)O[C@@H]2CCN3CC=C(COC(=O)[C@](C)(O)[C@@]1(C)O)[C@H]23`, the T/C (dose: 25.0 mg/kg/injection, schedule: Q01DX009 (ip), vehicle: saline) was 123 % of control.
Consider `CC(C)N(C(=O)COc1ccc(Cl)cc1)c1ccccc1`, for which the T/C is, setting by setting: under setting [1], 86 % of control; (dose: 100.0 mg/kg/injection, schedule: Q01DX009 (ip), vehicle: Klucel (hydroxypropylcellulose) (HPC)) 106 % of control; under setting [2], 86 % of control.
`C=C(C)C1CCC2(C=O)CCC3(C)C(CCC4C5(C)CCC(O)C(C)(C)C5CCC43C)C12` (centres undefined): the T/C (dose: 18.75 mg/kg/injection, schedule: Q01DX009 (ip), vehicle: Klucel (hydroxypropylcellulose) (HPC)) is 94 % of control and the T/C (dose: 75.0 mg/kg/injection, schedule: Q01DX009 (ip), vehicle: Klucel (hydroxypropylcellulose) (HPC)) is 97 % of control.
`CC1=C(/C=C/C(C)=N/NC(N)=S)C(C)(C)CCC1`: the T/C was 105 % of control (dose: 0.3 mg/kg/injection, schedule: Q01DX009 (ip), vehicle: saline with Tween-80); 97 % of control (dose: 6.0 mg/kg/injection, schedule: Q01DX009 (ip), vehicle: saline with Tween-80); 97 % of control (dose: 12.0 mg/kg/injection, schedule: Q01DX009 (ip), vehicle: saline with Tween-80).
On to `COC1C(C)OC(OC2CC(C)(O)Cc3cc4c(c(O)c32)C(=O)c2c(O)cc3c(c2C4=O)OC2OC3(C)C(O)C(N(C)C)C2O)C(OC)C1(C)OC` (centres undefined), for which the T/C is, setting by setting: (dose: 0.16 mg/kg/injection, schedule: Q01DX009 (ip), vehicle: other) 95 % of control; (dose: 0.63 mg/kg/injection, schedule: Q01DX009 (ip), vehicle: other) 159 % of control; (dose: 5.4 mg/kg/injection, schedule: Q04DX003 (ip), vehicle: lactic acid) 195 % of control; (dose: 9.0 mg/kg/injection, schedule: Q04DX003 (ip), vehicle: lactic acid) 171 % of control.
Regarding `O=C(O)COc1ccc([N+](=O)[O-])cc1`, the T/C under setting [3] is 96 % of control and the T/C under setting [4] is 87 % of control.
Turning to `C=C(C)C(=O)OCC12CCC(C)=CC1OC1C(O)C(OC(=O)CCl)C2(C)C12CO2` (centres undefined), the T/C is 122 % of control (dose: 0.25 mg/kg/injection, schedule: Q01DX009 (ip), vehicle: water); 124 % of control (dose: 0.5 mg/kg/injection, schedule: Q01DX009 (ip), vehicle: water); 152 % of control (dose: 1.0 mg/kg/injection, schedule: Q01DX009 (ip), vehicle: water); 152 % of control (dose: 2.0 mg/kg/injection, schedule: Q01DX009 (ip), vehicle: water).
For `COCCN1CCC(C)(CO)C1` (centres undefined), the T/C under setting [5] is 106 % of control, the T/C under setting [6] is 100 % of control and the T/C under setting [7] is 93 % of control.
Take `FC(F)(F)S.[Hg]`: the T/C is 104 % of control (dose: 1.25 mg/kg/injection, schedule: Q01DX009 (ip), vehicle: saline); 100 % of control (dose: 2.5 mg/kg/injection, schedule: Q01DX009 (ip), vehicle: saline); 102 % of control (dose: 5.0 mg/kg/injection, schedule: Q01DX009 (ip), vehicle: saline).
In the case of `O=[N+]([O-])c1ccc(/C=C2/c3cc(Cl)ccc3-c3c(Cl)cc(Cl)cc32)cc1`, the T/C was 90 % of control (dose: 6.25 mg/kg/injection, schedule: Q01DX009 (ip), vehicle: saline with Tween-80) and 88 % of control (dose: 25.0 mg/kg/injection, schedule: Q01DX009 (ip), vehicle: saline with Tween-80).
In the case of `O=C/C(Cl)=C(/Cl)C(=O)O`, the T/C (dose: 2.5 mg/kg/injection, schedule: Q01DX009 (ip), vehicle: saline with Tween-80) is 99 % of control; the T/C (dose: 5.0 mg/kg/injection, schedule: Q01DX009 (ip), vehicle: saline with Tween-80) is 87 % of control; the T/C (dose: 10.0 mg/kg/injection, schedule: Q01DX009 (ip), vehicle: saline with Tween-80) is 102 % of control; the T/C (dose: 20.0 mg/kg/injection, schedule: Q01DX009 (ip), vehicle: saline with Tween-80) was 106 % of control.
For `CCCC(NC(=O)C(C)Br)C(=O)O` (centres undefined), the T/C (dose: 50.0 mg/kg/injection, schedule: Q01DX009 (ip), vehicle: saline with Tween-80) is 101 % of control and the T/C under setting [3] is 87 % of control.
In the case of `CC(C)C[NH-].CC(C)C[NH-].O.O.[Cl][Pt+2][Cl]`, the T/C was 151 % of control (dose: 10.0 mg/kg/injection, schedule: Q01DX009 (ip), vehicle: other); 160 % of control (dose: 30.0 mg/kg/injection, schedule: Q01DX009 (ip), vehicle: other); 214 % of control (dose: 40.0 mg/kg/injection, schedule: Q01DX009 (ip), vehicle: other); 169 % of control (dose: 50.0 mg/kg/injection, schedule: Q01DX009 (ip), vehicle: other).
Turning to `CC(O)C(O)C=O` (centres undefined), the T/C (dose: 248.0 mg/kg/injection, schedule: Q01DX009 (ip), vehicle: saline) is 108 % of control; the T/C (dose: 346.0 mg/kg/injection, schedule: Q01DX009 (ip), vehicle: saline) is 97 % of control; the T/C (dose: 576.0 mg/kg/injection, schedule: Q01DX009 (ip), vehicle: saline) was 104 % of control.
